Measurements from patent US12247064B2, “Modified ligand-gated ion channels and methods of use” (Howard Hughes Medical Institute, priority 2017, dated 2025).
Read-outs that look alike come from different tables or passages of the source.

Experiments:
[1] = biological target: T1, α7-GlyR (Homo sapiens, UniProt P36544)
[2] = biological target: T2, α7-5HT3 (Homo sapiens, UniProt P36544, M226I/T225I)
[3] = test system: α7GlyR G175K / A298G mutant chimeric channels; format: cell-based, human
[4] = test system: α7GABAc W298A (GABAA-ρ); assay: Agonist potency at α7GABAc channel with W298A (Table 7); format: cell-based, human; conditions: a7GABAc Q79G L141F W298A
[5] = biological target: T3, α7GlyR G175K (Homo sapiens, UniProt P36544, G175K); assay: Agonist potency at chimeric channel; format: cell-based
T3 construct: expressed in transfected cells

[6] = biological target: T4, α7GlyR P216I (Homo sapiens, UniProt P36544, P216I); assay: Agonist potency at chimeric channel; format: cell-based
T4 construct: expressed in transfected cells

[7] = biological target: T5, α7^L131A-GlyR (Homo sapiens, UniProt P36544, L131A); format: cell-based; conditions: over α7-GlyR
T5 construct: expressed in transfected cells

[8] = biological target: T6, 5HT3-R (Homo sapiens, UniProt P46098); assay: Agonist potency at 5HT3-R; format: cell-based
T6 sequence (P46098 24-478): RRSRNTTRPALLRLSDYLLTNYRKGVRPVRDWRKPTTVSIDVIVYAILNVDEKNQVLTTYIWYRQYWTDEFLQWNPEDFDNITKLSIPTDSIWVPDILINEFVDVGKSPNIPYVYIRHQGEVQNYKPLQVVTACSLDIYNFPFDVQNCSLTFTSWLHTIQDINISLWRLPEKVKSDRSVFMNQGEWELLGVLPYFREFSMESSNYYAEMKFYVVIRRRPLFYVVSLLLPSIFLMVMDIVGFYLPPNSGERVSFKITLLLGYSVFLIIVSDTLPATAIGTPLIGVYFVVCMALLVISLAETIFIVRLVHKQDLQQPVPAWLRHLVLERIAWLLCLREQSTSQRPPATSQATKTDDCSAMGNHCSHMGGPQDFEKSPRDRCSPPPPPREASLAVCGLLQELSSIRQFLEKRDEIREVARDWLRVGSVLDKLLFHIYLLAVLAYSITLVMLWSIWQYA

[9] = test system: cortical neurons expressing PSAM^4-5HT3 HC; assay: Chemogenetic activation of cortical neurons expressing PSAM^4-5HT3 HC; format: cell-based, mouse
Source text: FIGS. 12A-12F show chemogenetic perturbation of cortical neuron activity. […] FIG. 12C) Cortical layer 2/3 neuron membrane properties were similar in PSAM^4-GlyR expressing neurons and intermingled untransfected control neurons. […] FIG. 12F) Cortical layer 2/3 neuron membrane properties are similar in PSAM^4-5HT3 HC expressing neurons and intermingled untransfected control neurons. Data are mean±SEM. Mann Whitney U-test, n.s. P>0.05, ***P<0.001.
Chemogenetic perturbation of cortical neuron activity was evaluated. […] Cortical layer 2/3 neuron membrane properties were similar in PSAM^4-GlyR expressing neurons and intermingled untransfected control neurons. […] Cortical layer 2/3 neuron membrane properties are similar in PSAM^4-5HT3 HC expressing neurons and intermingled untransfected control neurons. See, e.g., FIG. 12.

[10] = test system: mice expressing PSAM^4-GlyR unilaterally in SNr; assay: Unilateral SNr silencing rotation assay; format: in vivo, mouse
[11] = biological target: T2, α7-5HT3; remark: listed apart in the source
[12] = biological target: T1, α7-GlyR; assay: cell-based
[13] = biological target: α4β2 nAChR (Homo sapiens, UniProt P17787+P43681); assay: Agonist potency at α4β2 nAChR
[14] = read-out: α7-5HT3 EC50, HEK cells, Table 3
[15] = read-out: Agonist potency; α7GlyR Q79G A298G G175K Y115F
[16] = read-out: Agonist potency; α7GlyR Q79G A298G Y115F K395 K396A
[17] = read-out: Agonist potency; α7GlyR Q79G G175K A298G
[18] = read-out: Agonist potency; α7GlyR Q79G W77F A298G
[19] = read-out: Agonist potency; α7GlyR R27D E41R Q79G Y115F

T2 sequence (P36544 with tags, fused parts or gaps T225I/M226I limits assumed): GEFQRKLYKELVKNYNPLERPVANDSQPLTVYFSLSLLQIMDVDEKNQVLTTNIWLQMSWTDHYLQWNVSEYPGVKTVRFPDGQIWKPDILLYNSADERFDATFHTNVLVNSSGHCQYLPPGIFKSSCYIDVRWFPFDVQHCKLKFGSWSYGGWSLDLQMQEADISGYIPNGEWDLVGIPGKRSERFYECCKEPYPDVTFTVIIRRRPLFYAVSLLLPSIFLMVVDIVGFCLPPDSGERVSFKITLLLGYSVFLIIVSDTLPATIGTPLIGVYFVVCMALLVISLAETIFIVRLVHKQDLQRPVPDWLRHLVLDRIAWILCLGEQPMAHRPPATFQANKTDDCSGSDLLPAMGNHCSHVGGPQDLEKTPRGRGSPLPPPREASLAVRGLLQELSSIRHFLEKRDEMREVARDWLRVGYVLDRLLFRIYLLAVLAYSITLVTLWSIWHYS
T1 sequence (P36544 with tags, fused parts or gaps): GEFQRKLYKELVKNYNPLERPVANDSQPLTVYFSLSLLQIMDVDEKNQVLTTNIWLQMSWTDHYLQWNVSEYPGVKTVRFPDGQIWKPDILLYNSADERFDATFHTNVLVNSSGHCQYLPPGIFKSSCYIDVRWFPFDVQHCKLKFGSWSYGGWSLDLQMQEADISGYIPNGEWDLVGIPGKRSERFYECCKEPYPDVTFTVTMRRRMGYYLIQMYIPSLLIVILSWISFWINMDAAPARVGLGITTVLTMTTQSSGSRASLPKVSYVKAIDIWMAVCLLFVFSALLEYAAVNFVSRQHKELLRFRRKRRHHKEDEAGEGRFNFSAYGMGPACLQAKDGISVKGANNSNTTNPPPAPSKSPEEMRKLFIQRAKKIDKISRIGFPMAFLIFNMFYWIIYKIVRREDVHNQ
α4β2 nAChR, sequence (P43681 29-627 limits assumed): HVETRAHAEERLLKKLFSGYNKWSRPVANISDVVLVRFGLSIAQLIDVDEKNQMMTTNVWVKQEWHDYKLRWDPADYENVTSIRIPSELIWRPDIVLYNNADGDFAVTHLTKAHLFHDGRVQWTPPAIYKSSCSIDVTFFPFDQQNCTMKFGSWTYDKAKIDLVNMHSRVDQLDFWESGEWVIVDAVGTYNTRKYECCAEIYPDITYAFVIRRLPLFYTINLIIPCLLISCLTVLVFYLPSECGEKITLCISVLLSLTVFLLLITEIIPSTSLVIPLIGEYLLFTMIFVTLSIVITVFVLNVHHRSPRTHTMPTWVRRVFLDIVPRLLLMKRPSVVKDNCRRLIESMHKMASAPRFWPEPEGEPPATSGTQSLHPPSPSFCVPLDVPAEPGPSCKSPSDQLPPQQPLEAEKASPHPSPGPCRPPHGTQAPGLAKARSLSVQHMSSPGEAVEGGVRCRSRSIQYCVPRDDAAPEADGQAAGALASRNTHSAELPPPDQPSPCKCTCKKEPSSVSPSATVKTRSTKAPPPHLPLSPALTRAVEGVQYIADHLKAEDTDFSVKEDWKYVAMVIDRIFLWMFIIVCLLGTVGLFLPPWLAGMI
α4β2 nAChR, sequence (P17787 26-502): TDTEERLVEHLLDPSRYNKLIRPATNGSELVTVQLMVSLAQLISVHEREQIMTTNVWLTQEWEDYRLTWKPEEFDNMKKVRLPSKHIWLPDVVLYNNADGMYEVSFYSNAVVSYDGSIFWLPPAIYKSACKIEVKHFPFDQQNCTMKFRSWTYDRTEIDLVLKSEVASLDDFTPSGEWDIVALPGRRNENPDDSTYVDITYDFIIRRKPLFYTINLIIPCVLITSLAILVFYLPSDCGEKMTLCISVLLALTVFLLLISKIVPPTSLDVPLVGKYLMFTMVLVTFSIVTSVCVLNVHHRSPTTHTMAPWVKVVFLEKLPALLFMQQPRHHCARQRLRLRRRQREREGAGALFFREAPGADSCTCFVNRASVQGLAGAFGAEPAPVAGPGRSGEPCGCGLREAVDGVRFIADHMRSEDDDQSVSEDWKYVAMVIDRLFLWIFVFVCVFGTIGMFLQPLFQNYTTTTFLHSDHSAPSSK
T4 sequence (P36544 with tags, fused parts or gaps P216I): as the sequence (P36544 with tags, fused parts or gaps) above, with P194I counted along it
T5 sequence (P36544 with tags, fused parts or gaps L131A limits assumed): as the sequence (P36544 with tags, fused parts or gaps) above, with L109A counted along it
T3 sequence (P36544 with tags, fused parts or gaps G175K): as the sequence (P36544 with tags, fused parts or gaps) above, with G153K counted along it

Compound	EC50 ([8]; 5HT3-R, Table 10) [µM]	EC50 [11] [µM]	EC50 [12] [µM]	EC50 ([13]; […], α4β2 nAChR, Table 10) [µM]	further results
COc1ccc(OC)c(C(=O)NC2C3CCN(CC3)C2Cc2cccnc2)c1 (mixture of isomers) [compound 0434]	–	–	–	–	EC50 [1]: > 10 µM; EC50 [2, 14]: > 10 µM
O=C(NC1C2CCN(CC2)C1Cc1cccnc1)c1ccc(C(F)(F)F)cc1 (mixture of isomers) [compound 0436]	–	–	–	–	EC50 [1]: 0.31 µM; EC50 [2, 14]: 0.84 µM
O=c1cccc2n1C[C@@H]1CNC[C@H]2C1 [Cytisine]	–	–	–	–	EC50 [3, 15]: 4.6 µM; EC50 ([3]; read-out: Agonist potency; α7GlyR Q79G A298G P216I): 5.5 µM; EC50 [3, 16]: > 30 µM; EC50 [3, 17]: 0.134 µM; EC50 [3, 18]: 14.1 µM; EC50 [3, 19]: > 30 µM; EC50 [4]: 13.3 µM
Clc1ccc(C2CC3CCC2N3)cn1 (centres unmarked) [Epibatidine]	–	–	–	–	EC50 ([3]; α7GlyR Q79G A298G G175K Y115F; read-out: Agonist potency): 0.011 µM; EC50 ([3]; α7GlyR Q79G A298G P216I; read-out: Agonist potency): 0.05 µM; EC50 ([3]; α7GlyR Q79G A298G Y115F K395 K396A; read-out: Agonist potency): 0.15 µM; EC50 ([3]; α7GlyR Q79G G175K A298G; read-out: Agonist potency): 0.0023 µM; EC50 ([3]; α7GlyR Q79G W77F A298G; read-out: Agonist potency): 0.37 µM; EC50 ([3]; α7GlyR R27D E41R Q79G Y115F; read-out: Agonist potency): 0.267 µM; EC50 [4]: 0.42 µM
CN1C2CCCC1CC(NC(=O)c1nn(C)c3ccccc13)C2 (centres unmarked) [Granisetron, reference compound]	–	–	–	–	activation of channel [2]: does not activate
CN1CCCC1c1cccnc1 (centres unmarked) [Nicotine]	–	–	–	–	increased potency [5]: 10 fold; increased potency [6]: > 4 fold
c1cnc2cc3c(cc2n1)[C@@H]1CNC[C@H]3C1 [Varenicline]	1.4	–	–	–	enhanced potency [7]: 8 fold; EC50 [3, 15]: 2.37 µM; EC50 [3, 16]: > 30 µM; EC50 [3, 17]: 0.022 µM; EC50 [3, 18]: 3.66 µM; EC50 [3, 19]: > 30 µM; EC50 [4]: 6.27 µM; membrane potential and firing [9]: depolarizes and elicits firing; rotation response ([10]; low doses, intraperitoneal, not in sham operated or EGFP-alone mice): elicit contraversive rotation; doses at which circling contralateral to the silenced SNr was seen ([10]; mice): above 0.1 mpk; improvement in potency over anti-nicotine activity ([10]; mice): 10 fold; tachyphylaxis of the chemogenetic response ([10]; two doses separated by 5 hours): no tachyphylaxis
O=C(N[C@@H]1CN2CCC1CC2)c1ccc(C(F)(F)F)cn1 [compound 0295]	–	–	–	–	EC50 [1]: > 100 µM; EC50 [2, 14]: > 100 µM
O=C(NC1CN2CCC1CC2)c1ccc(C(F)(F)F)nc1 (centres unmarked) [compound 0296]	–	–	–	–	EC50 [2, 14]: > 100 µM
O=C(Nc1ccccc1)N[C@@H]1CN2CCC1CC2 [compound 0353]	–	–	–	–	EC50 [1]: 0.27 µM; EC50 [2, 14]: 0.65 µM
S=C(Nc1ccc(Cl)cc1)NC1CN2CCC1CC2 (centres unmarked) [compound 0354]	–	–	–	–	partial agonist activity ([2]; HEK cells, Table 3): 1.4 partial
CN1C2CCC1CC(NC(=S)c1c[nH]c3ccccc13)C2 (centres unmarked) [compound 0542]	–	–	–	–	EC50 [2, 14]: 3.8 µM
O=C(N[C@@H]1CN2CCC1CC2)c1c[nH]c2ccccc12 [compound 0676]	–	–	–	–	EC50 [2, 14]: 0.03 µM
Cc1ccccc1-c1cnc2cc3c(cc2n1)C1CNCC3C1 (centres unmarked) [compound 780]	–	10.6	> 100	–	–
Cc1ccccc1-c1cnc2cc3c(cc2n1)C1CC3CN(C)C1 (centres unmarked) [compound 782]	> 30	> 100	> 100	–	–
Cc1nc2cc3c(cc2[nH]c1=O)C1CNCC3C1 (centres unmarked) [compound 783]	0.43	–	> 100	–	EC50 ([13]; […]): 43 µM
O=c1[nH]c2cc3c(cc2nc1-c1ccccc1)C1CNCC3C1 (centres unmarked) [compound 784]	6.2	> 30	> 30	–	–
c1c2c(cc3nc4c(nc13)CCCC4)C1CNCC2C1 [compound 785]	10.2	–	> 100	–	–
c1cncc(-c2nc3cc4c(cc3[nH]2)C2CNCC4C2)c1 (centres unmarked) [compound 786, 2-(pyridin-3-yl)-1,5,6,7,8,9-hexahydro-5,9-methanoimidazo[4′,5′:4,5]benzo[1,2-d]azepine]	–	> 100	> 100	–	–
FC(F)(F)c1cnc2cc3c(cc2n1)C1CNCC3C1 (centres unmarked) [compound 788]	41	> 100	> 100	> 30	–

Compound	EC50 ([8]; 5HT3-R, Table 10) [µM]	EC50 [11] [µM]	EC50 [12] [µM]	EC50 ([13]; […], α4β2 nAChR, Table 10) [µM]	further results
COc1nc2cc3c(cc2nc1-c1ccccc1)C1CNCC3C1 (centres unmarked) [compound 789]	0.51	> 100	> 100	> 30	–
Cc1nc2cc3c(cc2n(C)c1=O)C1CNCC3C1 (centres unmarked) [compound 790]	4.3	> 100	> 100	> 30	–
COc1nc2cc3c(cc2nc1C)C1CNCC3C1 (centres unmarked) [compound 791]	0.17	–	> 30	> 30	–
Cn1c(=O)cnc2cc3c(cc21)C1CNCC3C1 (centres unmarked) [compound 792]	40.5	> 30	–	–	EC50 [1]: > 30 µM
COc1cnc2cc3c(cc2n1)C1CNCC3C1 (centres unmarked) [compound 793]	–	–	–	–	EC50 [8]: 0.19 µM; EC50 [1]: 19 µM
Cc1nc2cc3c(cc2nc1N(C)C)C1CNCC3C1 (centres unmarked) [compound 794]	1.7	–	> 30	> 30	–
CCN(CC)c1nc2cc3c(cc2nc1C)C1CNCC3C1 (centres unmarked) [compound 795]	1.1	–	> 30	> 30	EC50 ([8]; read-out: potency for 5HT3-R): > 1 µM; EC50 ([13]; potency for α4β2 nAChR): > 10 µM
Cc1nc2cc3c(cc2nc1-n1ccnc1)C1CNCC3C1 (centres unmarked) [compound 798]	1.1	> 30	> 30	28	–
c1ccn(-c2cnc3cc4c(cc3n2)C2CNCC4C2)c1 (centres unmarked) [compound 799]	11.7	–	> 100	3.5	–
c1cn(-c2cnc3cc4c(cc3n2)C2CNCC4C2)cn1 (centres unmarked) [compound 800]	3.5	–	> 30	13.9	–
c1ncn(-c2cnc3cc4c(cc3n2)C2CNCC4C2)n1 (centres unmarked) [compound 801]	4.4	–	> 30	26	–
Cc1nc2cc3c(cc2nc1-c1cccnc1)C1CNCC3C1 (centres unmarked) [compound 802]	–	–	> 30	–	EC50 ([8]; […], 5HT3-R, Table 10): 1.5 µM; EC50 ([8]; potency for 5HT3-R): > 1 µM; EC50 ([13]; […]): > 30 µM; EC50 ([13]; potency for α4β2 nAChR): > 10 µM
Cc1nc2cc3c(cc2nc1-c1ccncc1)C1CNCC3C1 (centres unmarked) [compound 803]	–	–	> 30	–	EC50 ([8]; […], 5HT3-R, Table 10): 0.75 µM; EC50 ([13]; […]): 14 µM
c1cncc(-c2cnc3cc4c(cc3n2)C2CNCC4C2)c1 (centres unmarked) [compound 804]	–	–	> 30	–	EC50 ([8]; […], 5HT3-R, Table 10): 2 µM; EC50 ([13]; […]): 4.8 µM
c1cc(-c2cnc3cc4c(cc3n2)C2CNCC4C2)ccn1 (centres unmarked) [compound 805]	–	–	> 30	–	EC50 ([8]; […], 5HT3-R, Table 10): 1 µM; EC50 ([13]; […]): 4.9 µM
Cc1nc2cc3c(cc2nc1Cn1cncn1)C1CNCC3C1 (centres unmarked) [compound 807]	0.57	> 30	> 30	> 30	–
Cc1nc2cc3c(cc2nc1-n1cncn1)C1CNCC3C1 (centres unmarked) [compound 808]	12.5	> 30	> 30	> 30	EC50 ([8]; read-out: potency for 5HT3-R): > 1 µM; EC50 ([13]; potency for α4β2 nAChR): > 10 µM
Cc1nc2cc3c(cc2nc1Cn1cccn1)C1CNCC3C1 (centres unmarked) [compound 812]	11	> 100	> 100	> 100	–
CCOc1cnc2cc3c(cc2n1)C1CNCC3C1 (centres unmarked) [compound 815]	–	–	–	–	In vivo potency ([10]; SNr silencing rotation assay in mice): 0.1 mpk; EC50 [1]: > 100 µM; α4β2 nAChR agonism [13]: do not show evident α4β2 nAChR agonism; EC50 ([13]; read-out: EC50MP): > 30 µM; EC50 ([2]; read-out: EC50MP): > 100 µM
